Reference: patent US7608620B2, “LPAAT-β inhibitors and uses thereof” (Cell Therapeutics, Inc., priority 2000, dated 2009)

Columns and labels:
[1] = system: human breast tumor MCF-7 cells; test: Proliferation of MCF-7 cells by CyQUANT analysis; format: cell-based; details: FIG. 5E
Method: To determine whether administration of LPAAT-β inhibitor would have any effect on cell proliferation in tissue culture, proliferation of human breast tumor MCF-7 cells in microplates were measured by CyQUANT analysis using a green-fluorescent nucleic acid stain optimized to produce a linear detection range from 50 to 50,000 cells in 200 μl volume (Molecular Probes, Eugene, Oreg.) in the presence of various concentrations of a LPAAT-β inhibitor.

[2] = system: NIH/3T3 cells overexpressing the oncogene Ki-ras; test: Tumor growth of NIH/3T3 cells overexpressing Ki-ras injected subcutaneously into nude mice; format: in vivo; details: 10 mg/Kg to 100 mg/Kg intra-peritoneally on day 1, 2, 3 and 4; tumors measured on day 8; FIG. 6B
Method: To determine whether administration of LPAAT-β inhibitor would have any effect on tumor growth in mice, 5×10^5 NIH/3T3 cells overexpressing the oncogene Ki-ras were injected subcutaneously into nude mice. An LPAAT-β inhibitor 6-chloro-N,N′-diphenyl-[1,3,5]triazine-2,4-diamine, at concentrations that range from 10 mg/Kg to 100 mg/Kg of mouse body weight was injected intra-peritoneally on day 1, 2, 3 and 4 after injection of tumor cells. The size of tumors was then measured on day 8.

B16 melanoma cells = test: Growth of B16 melanoma cells in syngeneic mice; format: in vivo; details: FIG. 6C
Lewis Lung tumor cells = test: Growth of Lewis Lung tumor cells in syngeneic mice; format: in vivo; details: FIG. 6D
[3] = system: human DU145 prostate tumor cells; test: Human DU145 prostate tumor xenograft in nude mice; format: in vivo; details: xenograft study, FIG. 6E
[4] = Tolerability in nude and immunocompetent mice; format: in vivo
Excerpt: In summary, endogenous LPAAT-β expression is detected at high levels by both in situ hybridization and immunohistochemistry in particular tumor tissues and often in surrounding stroma and is associated with tumor progression. LPAAT-β overexpression appears to contribute reversibly to transformation and tumorigenesis of immortalized rodent cells and may also contribute to increased transformation of weakly tumorigenic human cell lines. Compounds selected from screening of LPAAT-β inhibitors from different structural families can inhibit proliferation of numerous tumor cell lines in vitro. […] This compound can inhibit the growth of numerous tumor models in mice and may be a tumor-static compound.

LPAAT-β = biological target: T1, LPAAT-β (Homo sapiens, UniProt O15120); test: Secondary assay of LPAAT-β activity (radiometric/TLC); format: biochemical; details: FIG. 9
T1 construct: the full-length human LPAAT-β cDNA was amplified by PCR; made in house; host or cells: Sf9 insect cells (baculovirus, pFastBac HTc); membrane fraction
T1 sequence (O15120 24-278): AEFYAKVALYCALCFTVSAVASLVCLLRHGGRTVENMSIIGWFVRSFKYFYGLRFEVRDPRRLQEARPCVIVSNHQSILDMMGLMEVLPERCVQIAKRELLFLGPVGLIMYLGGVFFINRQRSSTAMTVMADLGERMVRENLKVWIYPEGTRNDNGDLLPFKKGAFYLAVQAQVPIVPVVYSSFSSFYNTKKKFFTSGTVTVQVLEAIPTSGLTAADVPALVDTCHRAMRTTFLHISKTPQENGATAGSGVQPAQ
Method: The radiometric assay was carried out in Sf9 cell membrane overexpressing LPAAT-β resuspended in HEPES-saline buffer, pH 7.5, 1 mg/ml BSA, 1 mM EDTA and 200 μM [^14C]18:1-CoA and 200 μM sn-1-18:1 lysoPA. The samples were incubated 7 min at 37° C. extracted into organic solvent (CHCl3/CH3OH/HCl at 33/66/1), before loading onto TLC plates. A more detailed protocol for the radiometric assay is described below:
Specifically, this LPAAT assay is a modification of the acyltransferase assay published previously (Hollenback and Glomset, Biochemistry 37: 363-376 (1999)).
1. The basic assay, in a total vol of 50 μl, employs a solution of substrates and the protein sample. Total assay volume, as well as the volume of each solution, can be changed to fit an experiment. In addition, other compounds, ex inhibitors and activators, can be included in the assay as well.
2. […]
7. […] To be able to convert pixel volume (determined by the Storm phosphor imager, see step 8b) into cpm, cpm standard curve must be generated on the plate. ^14C-labeled oleate dilutions in chloroform are made for this purpose. Four stocks (50 cpm/μl to 800 cpm/μl) are made and 2 μl of a different concentration are spotted in each corner of the plate (where previously there was no radioactivity). • d. […]
The PA and lysoPA bands are easily detected in this system because of the carrier added in step 5. […]
8. Quantitating activity: • a. […]

LPAAT-α = biological target: T2, LPAAT-α (Homo sapiens, UniProt Q99943); test: Secondary assay, effect on LPAAT-α activity; format: biochemical; details: FIG. 9
T2 sequence (Q99943 27-283): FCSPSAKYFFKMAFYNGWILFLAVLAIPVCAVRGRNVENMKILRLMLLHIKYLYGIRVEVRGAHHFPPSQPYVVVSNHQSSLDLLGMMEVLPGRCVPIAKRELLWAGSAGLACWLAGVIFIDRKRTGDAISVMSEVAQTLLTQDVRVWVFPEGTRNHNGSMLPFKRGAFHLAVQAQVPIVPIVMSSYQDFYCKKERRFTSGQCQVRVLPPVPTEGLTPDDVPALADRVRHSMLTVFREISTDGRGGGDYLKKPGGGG

In the case of Clc1nc(Nc2ccccc2)nc(Nc2ccccc2)n1 [6-chloro-N,N′-diphenyl-[1,3,5]triazine-2,4-diamine], the “concentration effective in blocking the proliferation of MCF-7 cells” value [1] is reported as > 20 µM, the “volume of the tumors in mice” value [2] is reported as “decreased as the concentration of the LPAAT-β inhibitor increases” and the “growth of B16 melanoma cells” value (B16 melanoma cells) is reported as “decrease the growth”. The “growth of Lewis Lung tumor cells” value (Lewis Lung tumor cells) was “decrease the growth”, the “growth of human DU145 prostate tumor cells” value [3] was “decrease the growth” and the gross pathology ([4]; at least 100 mg/kg/day for 4-5 days) was “no discernable gross pathology”. For the same compound, the tolerated dose ([4]; nude and immunocompetent mice, mouse, in vivo) was “at least 100 mg/kg/day”, the “inhibition of LPAAT-β activity” value (LPAAT-β) was “concentration-dependent inhibition” and the “effect on LPAAT-α activity” value (LPAAT-α) was “minimal effect”.
